Entries after “also recorded” stand apart in the source; their conditions may differ. Like-named read-outs stand apart in the source and are kept apart here. Blank lines part the entries; values can stand above or below the compound they belong to.
What was measured:
[1] = design: method as in PMID 33640246; settings: at 8 µM; cited from earlier work
A375 cells = experiment: MTT assay for cell viability, A375; format: cell-based; settings: up to 32 μM
Experimental: (§1) The cytotoxic activity of all derivatives against the HEK 293 cell line and 10g against A375 (at a density of 5 × 10^3 cells/ml) using 3-(4,5-dimethylthiazol-2-yl)-2,5- diphenyltetrazolium bromide (MTT) assay were performed. Cells were grown at 37 °C in the presence of CO2 5% in DMEM (Gibco BRL, Grand Island, NY, USA), 10% fetal bovine serum (FBS, Gibco BRL), and penicillin/streptomycin (100 IU/mL and 100 µg/mL, respectively). Next cells were seeded in a 96-well plate and incubated at 37 ^∘C with derivatives at different concentrations for 48 h. Following the treatment, cells were incubated with MTT (0.5 mg/ml) at 37 ^∘C for 3 h. The MTT-containing medium was then removed, and 100 μl of DMSO was added to each well, mixed thoroughly with a 10 min shake to dissolve formazan crystals. The absorbance of each well was measured at 540 nm[33].

[2] = MTT assay for cell viability, A375; format: cell-based; settings: human, A375 cells, 48 h, mean ± S.E.M.
Experimental: as §1

mushroom tyrosinase [3] = experiment: Enzyme kinetic study (Lineweaver–Burk plot); format: biochemical
Experimental: The Lineweaver–Burk reciprocal plot was provided by plotting 1/V against 1/[S] at variable concentrations of the substrate L-Dopa (0.25, 0.5, 0.75, and 1 mM) The inhibition constant Ki was achieved by the plot of slopes versus the corresponding concentrations of the compound 10g[24].

tyrosinase = experiment: Fluorescence quenching of tyrosinase (Stern–Volmer); format: binding
Experimental: The fluorescent measurements were carried out in each well of the black 96 well plate by adding various concentrations of inhibitor 10g, (Q = 5, 10, 20, 40, and 100 µM) to a constant concentration of tyrosinase (273 IU/mL). Next, phosphate buffer solution (0.05 M, pH = 6.8) was used to bring the capacity of each well to 200 µL. Before measurements, all solutions were properly mixed and allowed to stand for 20 min at 298 K and 304 K. A fluorescence spectrometer (BioTek’s multi-mode plate reader, USA) was used to measure the fluorescence spectra. The bandwidths of excitation and emission were both set at 5 nm, and fluorescence emission spectra were captured spanning the wavelength range of 310–400 nm at an excitation wavelength of 280 nm.
The linear Stern–Volmer Eq. (1) was used to examine the fluorescence quenching:1 F0/F=1+kqτ0Q=1+kSV[Q] where, F and F0 represent the fluorescence intensity in the presence or absence of inhibitors, respectively. The bimolecular quenching constant is denoted by the symbol kq, whereas the average lifespan of a biomolecule without a quencher is denoted by the symbol τ0, and its value is 10^−8 s. [Q] refers to the inhibitor concentration (µM). KSV which is calculated by kq . τ0. is the fluorescence quenching constant.
In order to calculate the apparent binding constant and binding fraction of fluorophore group of tyrosinase accessible to inhibitor 10g, Stern–Volmer Eq. (1) should be modified to Eq. (2):2 LogF0-F/F=log KA+n LogQ
In this equation, KA indicates either the modified apparent binding constant or the Stern–Volmer quenching constant. n represents the fraction of fluorophore accessible to the quencher. The intercept of the curve that is obtained by plotting log (F0-F/F) versus log [Q] is log KA, and the slope of the curve is n. Therefore, the intercept and slope data may be used to calculate the values of KA and n.

HEK 293 cell line = experiment: MTT assay for cell viability, HEK 293; format: cell-based; settings: HEK 293, 32 µM, 48 h, MTT; mean ± S.E.M.; 32 µM
Experimental: as §1

[4] = MTT assay for cell viability, HEK 293; format: cell-based; settings: human, HEK 293 cells, 48 h, MTT, mean ± S.E.M.
Experimental: as §1

A375 cell line = experiment: Melanin content assay; format: cell-based; settings: A375, 48 h, at tested concentrations, kojic acid positive control
Experimental: The assay was performed according to previously reported procedures. In detail, A375 cells were seeded in six-well plates (2.0 × 10^5 cells/well). After 24 h, the medium was replaced by a fresh one and treated with 10g at different concentrations and the plate was incubated for an extra 48 h. After that cells were washed twice with PBS and harvested using […], then dissolved in 300 μl of 1 N NaOH/10% DMSO buffer and boiled for 2 h at 80 °C to solubilize the melanin. The absorbance of the supernatant was measured at 470 nm in a microplate reader. The obtained results were normalized using total protein content. Kojic acid was used as a positive[30],[34].

[5] = target: T1, Mushroom tyrosinase (EC 1.14.18.1) (Agaricus bisporus, UniProt C7FF04); experiment: Tyrosinase inhibitory assay (colorimetric, diphenolase activity, L-Dopa); format: biochemical; settings: L-Dopa as substrate; means ± RSD of 3 independent experiments
T1 construct: purchased Sigma Chemical Co
T1 sequence (C7FF04 1-392 limits assumed): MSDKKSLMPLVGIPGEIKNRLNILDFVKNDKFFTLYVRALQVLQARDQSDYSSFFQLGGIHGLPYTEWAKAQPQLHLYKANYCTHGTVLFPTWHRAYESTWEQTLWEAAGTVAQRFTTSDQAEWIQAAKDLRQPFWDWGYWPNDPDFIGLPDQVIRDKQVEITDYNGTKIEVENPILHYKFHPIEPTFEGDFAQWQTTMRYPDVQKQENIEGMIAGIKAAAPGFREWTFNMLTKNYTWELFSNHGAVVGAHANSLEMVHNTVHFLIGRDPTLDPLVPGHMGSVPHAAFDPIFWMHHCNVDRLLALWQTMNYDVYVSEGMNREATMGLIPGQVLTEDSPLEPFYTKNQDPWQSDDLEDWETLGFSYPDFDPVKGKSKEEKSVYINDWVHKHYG
Experimental: Mushroom tyrosinase (EC 1.14.18.1) (Sigma Chemical Co.) was assayed using L-Dopa as the substrate as reported in our previous studies with some modifications[30]–[32]. The enzyme diphenolase activity was monitored spectrophotometrically by observing dopachrome formation at 490 nm. All the test samples were first dissolved in DMSO at 10 mM and diluted to the required concentrations. Initially, in a 96-well microplate, 10 µl of test samples were added to 160 µl of 50 mM phosphate buffer (pH = 6.8) and then 10 µl tyrosinase (500 U mL^−1) was added. After the mixture was pre-incubated at 28 °C for 20 min, 20 µl of L-Dopa solution (7 mM) was added to the mixture. After 10 min incubation absorbance of samples was measured. DMSO without test compounds was used as the control, and kojic acid was used as a positive control. Each assay was conducted as three separate replicates. The inhibitory activity of the tested compounds was expressed as the concentration that inhibited 50% of the enzyme activity (IC50). […]

melanoma cells = tested on: melanoma cells; design: method as in PMID 28393917; settings: cited from earlier work
mushroom tyrosinase [6] = settings: cited from earlier work

SMILES: O=c1cc(CSc2nc3ccccc3c(=O)n2Cc2ccccn2)occ1O [C]
melanin content [1]: 68.99%

melting point: 185 to 191 °C
Km (mushroom tyrosinase [3]; 10g 1 µM): 800 µM
Vmax (mushroom tyrosinase [3]; 10g 1 µM): 80.00 mM/min
Km (mushroom tyrosinase [3]; 10g 10 µM): 850 µM
Vmax (mushroom tyrosinase [3]; 10g 10 µM): 67.57 mM/min
Km (mushroom tyrosinase [3]; 10g 20 µM): 850 µM
Vmax (mushroom tyrosinase [3]; 10g 20 µM): 50.25 mM/min
Km (mushroom tyrosinase [3]; 10g 40 µM): 950 µM
inhibition pattern (type of inhibition) (mushroom tyrosinase [3]; Lineweaver–Burk plot, L-Dopa as substrate): noncompetitive
KA (binding constant) (tyrosinase; 298 K): 71150 L/mol
Kq (bimolecular quenching constant) (tyrosinase; 298 K): 6.69 × 10^12 L⋅mol^–1⋅s^–1
Ksv (Stern–Volmer constant) (tyrosinase; 298 K): 6.69 × 10^4 L.mol^–1
n (binding sites) (tyrosinase; 298 K): 0.9288
n (binding sites) (tyrosinase; 298 K and 304 K): ~1
Kq (bimolecular quenching constant) (tyrosinase; 298 K and 304 K, all values): higher than 2 × 10^10 L⋅mol^−1⋅s^−1
KA (binding constant) (tyrosinase; 304 K): 52200 L/mol
Kq (bimolecular quenching constant) (tyrosinase; 304 K): 5.14 × 10^12 L⋅mol^–1⋅s^–1
Ksv (Stern–Volmer constant) (tyrosinase; 304 K): 5.14 × 10^4 L.mol^–1
n (binding sites) (tyrosinase; 304 K): 1.0604
IC50 [5]: 25.7 µM
SMILES: NC(=S)N/N=C/c1cc2ccccc2nc1SCC(=O)Nc1ccc(Cl)cc1 [Compound 10g, (E)-2-((3-((2-carbamothioylhydrazono)methyl)quinolin-2-yl)thio)-N-(4-chlorophenyl)acetamide]
toxicity on A375 cell line (A375 cells): did not show significant toxicity
viability at 48 h, 16 µM ([2]; A375, 16 µM): 93.7 ± 2.24%
viability at 48 h, 32 µM ([2]; A375, 32 µM): 87.5 ± 1.53%
viability at 48 h, 64 µM ([2]; A375, 64 µM): 61.2 ± 3.91%
Cell viability (%) (HEK 293 cell line): 86.14 ± 2.17%
viability at 48 h, 16 µM ([4]; HEK 293, 16 µM): 92.7 ± 1.47%
viability at 48 h, 32 µM ([4]; HEK 293, 32 µM): > 85%
viability at 48 h, 64 µM ([4]; HEK 293, 64 µM): 72.5 ± 2.41%
effect on melanin content (A375 cell line): reduced the melanin content; also recorded: significant reduction of melanin content

SMILES: Oc1cnc2c(O)cccc2c1 [Jineol]
effect on melanin content (melanoma cells): reduced melanin content
IC50 (mushroom tyrosinase [6]; L-Dopa as substrate): 50.35 ± 0.05 µM
IC50 (mushroom tyrosinase [6]; L-tyrosine as substrate): 39.46 ± 0.01 µM

From PMC9925432, “Thioquinoline derivatives conjugated to thiosemicarbazide as potent tyrosinase inhibitors with anti-melanogenesis properties” (Scientific Reports, 2023)
